From publication PMC9501058, “Clinical Effectiveness and Pharmacokinetics of Dalbavancin in Treatment-Experienced Patients with Skin, Osteoarticular, or Vascular Infections” (Pharmaceutics, 2022)
Where two headings read alike, the source gives them in different places.

Columns and labels:
[1] = ref Dunne et al. 16; cited from earlier work
[2] = human, in vivo
[3] = cited from earlier work
[4] = 35 healthy subjects, single infusion of 1500 mg; ref Rappo et al. 15; cited from earlier work
[5] = clinical; conditions: human, in vivo, iv
[6] = single 1000 mg infusion; ref Nicolau et al. 14; cited from earlier work
[7] = test system: plasma proteins (mainly albumin); conditions: human; cited from earlier work
[8] = Adverse events under DBV; format: in vivo, human
From the text: Table 1 Overall patients’ characteristics at the baseline. | column: Overall / n = 76; Intensive PK Study (n = 41) / Group 0 (n = 17)

CN[C@H]1C(=O)N[C@@H]2Cc3ccc(cc3)Oc3cc4cc(c3O[C@@H]3O[C@H](C(=O)O)[C@@H](O)[C@H](O)[C@H]3NC(=O)CCCCCCCCC(C)C)Oc3ccc(cc3Cl)[C@@H](O)[C@@H]3NC(=O)[C@H](NC(=O)[C@@H]4NC(=O)[C@@H](NC2=O)c2cc(cc(O)c2Cl)Oc2cc1ccc2O)c1ccc(O)c(c1)-c1c(O[C@H]2O[C@H](CO)[C@@H](O)[C@H](O)[C@@H]2O)cc(O)cc1[C@@H](C(=O)NCCCN(C)C)NC3=O [DBV, Dalbavancin]
Mean bone/plasma AUC [1]: 13.1%
AUC0–3w [2]: 39,985 [37,045–39,985] mg/L·h
Cmax II dose [2]: 379.5 [321.3–448.8] mg/L
AUC0–1w ([2]; iv): 26,693 [20,842–28,630] mg/L·h
AUC0–2w ([2]; iv): 34,168 [25,336–37,301] mg/L·h
AUC0–3w ([2]; iv): 39,270 [28,876–43,971] mg/L·h
Cmax I dose ([2]; iv): 347.0 [292.4–479.2] mg/L
Cumul. AUC0–4w ([2]; iv): 41,681 [32,055–48,180] mg/L·h
Elimination half-life [3]: 220 to 240 h
Penetration into the epithelial-lining fluid [4]: 36%
Cmax ([5]; 1500 mg, Cmax I dose): 343 µg/mL
Cmax ([5]; Cmax II dose): 337 µg/mL
Mean penetration into skin blister fluid compared with plasma [6]: 59.6%
Protein binding (mean percentage in humans) [7]: 93%
AEs: yes ([8]; number of patients [%], group 0 (n = 17): single 1500 mg dose): 1 [6%]
AEs: yes ([8]; number of patients, overall n = 76): 1
